From US6106858A, “Modulation of drug loading in multivescular liposomes” (SkyePharma, Inc., priority 1997, dated 2000)
Several values for one entry are separate records, joined by “and”; a condition that tells them apart may be missing. Identical values can stand only once. Like-named read-outs stand apart in the source and are kept apart here. Each block holds one compound with its values, some of them ahead of it.

Assays:
[1] = Percent encapsulation (percent yield) of drug in final MVL suspension; format: physicochemical
[2] = Drug loading of multivesicular liposomes (MVL): drug concentration of suspension relative to lipocrit; format: physicochemical
[3] = cited from earlier work
[4] = Percent free drug in MVL suspension; settings: 125 mL scale, first aqueous: 15 mg/mL, 8.0 w/v % sucrose, 20 mM ammonium citrate, ~321 mOsm
Procedure: As used herein, "percent free drug" means the ratio of the amount of drug exterior to the liposomes in the final liposome suspension to the total amount of drug in the final suspension (the final product) multiplied by 100. [formula]
125 mL of first aqueous solution was mixed with 125 mL of the lipid component using a high-shear double-mixing vessel system to obtain the first emulsion. […] The aqueous and organic components were mixed at a speed of 8000 rpm for 30 minutes in the first emulsion vessel. […]
Percent free drug was calculated as the percent ratio of the amount of drug in the supernatant to the amount of drug in the final suspension. Percent free drug can also be calculated as the percent ratio of the drug concentration in the supernatant to that in the suspension, times (1-lipocrit) Drug loading, which measures the amount of drug encapsulated in each unit of the encapsulated volume, is approximately equal to and can be estimated (assuming low percent free drug) as the ratio of the drug concentration of the final liposome suspension to the lipocrit. […]
Using a reference absorbance standard established based on drug solutions of known concentration in the same dissolving solution, the concentrations of drug in the suspension and supernatant were calculated.

[5] = test system: MG-63 human osteosarcoma cell line; assay: Mitogenic bioassay of extracted IGF-I with MTT stain; format: cell-based; settings: mitogenic response of quiescent MG-63 cells, versus unencapsulated standard
From the text: (§1) The physicochemical integrity of the encapsulated IGF-I was confirmed by SDS-PAGE assay using Novex NuPage gel as well as by RP-HPLC assay using a C18 symmetric column. The encapsulated protein was extracted using 75:25 IPA:2N Citric Acid. The bioactivity of the encapsulated IGF-I was confirmed by a mitogenic bioassay using MG-63 human osteosarcoma cell line and 3-(4,5-dimethylthiazol-2-yl)-2,5-diphenyltetrazolium bromide (MTT) stain according to the method of W. Lopaczynski et al., Regulatory Peptides, 48:207-216, 1993. The MG-63 cells were obtained from the American Type Culture Collection (ATCC# CRL 1427), and the dose dependent mitogenic response of quiescent MG-63 cells to added IGF-I was determined.

[6] = Lipocrit of MVL suspension; format: physicochemical; settings: 125 mL scale, first aqueous: 15 mg/mL, 20 mM ammonium citrate
Procedure: As used herein, "lipocrit," which is defined in analogy to hematocrit, means the ratio of the volume occupied by the liposomes to the total suspension volume multiplied by 100. [formula]
Thus, percent yield of drug was calculated as the ratio of the drug concentration in the final suspension times the volume of the final suspension to the drug concentration in the first aqueous solution times the volume of the first aqueous solution. Lipocrit was calculated, in analogy to hematocrit, as the percent ratio of the pellet volume to the suspension volume (see conditions below for obtaining the pellet volume).
To calculate the lipocrit about 50 μL of the multivesicular liposome suspension was taken up into a capillary tube, and end of the tube was sealed while ensuring that the suspension contained no air bubbles. The suspension was spun in a centrifuge at 600×g for 10 minutes to obtain a pellet layer and a supernatant layer. The percent ratio of the length of the tube occupied by the pellet to that occupied by the suspension gives the lipocrit.

[7] = Integrity of encapsulated IGF-I by SDS-PAGE and RP-HPLC / characterization of encapsulated protein; format: physicochemical
From the text: as §1

[8] = Solubility of IGF-I versus pH; format: physicochemical
Procedure: Further studies were conducted using in the first aqueous component concentrations of IGF-I ranging from 10 to 80 mg/mL, either with or without 100 mM HCl or 25 mM citric acid at constant pH. […] Studies have shown that up to about 300 mg/mL of IGF-I is soluble at a pH below 5.

[9] = prior-art multivesicular liposomes; cited from earlier work
[10] = prior-art multivesicular liposomes; cited from earlier work; remark: listed apart in the source

Compound: CC(C)C[C@H](NC(=O)[C@H](Cc1ccccc1)NC(=O)CNC(=O)CNC(=O)[C@@H](N)Cc1ccc(O)cc1)C(=O)O [Enkephalin, reference compound]
% Yield [1]: 77.5% and 71.8% and 72.5% | effect of osmolarity of first aqueous solution on percent yield [1]: not significantly changed by a decrease in osmolarity | effect of osmolarity of first aqueous solution on drug loading [2]: decreasing of osmolarity resulting in increased drug loading | Drug Loading ([2]; first aqueous: 5 mg/mL, 0.0 w/v % sucrose, 25 mM citric acid, est. 35.5 mOsm): 50.8 mg/mL | Drug Loading ([2]; first aqueous: 5 mg/mL, 2.5 w/v % sucrose, 25 mM citric acid, est. 111.5 mOsm): 13.4 mg/mL | Drug Loading ([2]; first aqueous: 5 mg/mL, 5.0 w/v % sucrose, 25 mM citric acid, est. 191.5 mOsm): 6.4 mg/mL

% Yield ([1]; MVL, first aqueous: 15 mg/mL, 4.0 w/v % sucrose, 100 mM phosphoric acid, est. 261.6 mOsm): 54.1% | % Yield ([1]; MVL, first aqueous: 15 mg/mL, 6.0 w/v % sucrose, 100 mM phosphoric acid, est. 328.6 mOsm): 56.2% | Drug Loading ([2]; first aqueous: 15 mg/mL, 4.0 w/v % sucrose, 100 mM phosphoric acid, est. 261.6 mOsm): 17.9 mg/mL | Drug Loading ([2]; first aqueous: 15 mg/mL, 6.0 w/v % sucrose, 100 mM phosphoric acid, est. 328.6 mOsm): 10.9 mg/mL
Compound: CCNC(=O)[C@@H]1CCCN1C(=O)[C@H](CCCNC(=N)N)NC(=O)[C@H](CC(C)C)NC(=O)[C@@H](CC(C)C)NC(=O)[C@H](Cc1ccc(O)cc1)NC(=O)[C@H](CO)NC(=O)[C@H](Cc1c[nH]c2ccccc12)NC(=O)[C@H](Cc1c[nH]cn1)NC(=O)[C@@H]1CCC(=O)N1 [Leuprolide, reference compound]
effect of osmolarity of first aqueous solution on percent yield ([1]; MVL): A similar percent yield was maintained across the range of osmolarities tested | effect of osmolarity of first aqueous solution on drug loading [2]: decreasing of osmolarity resulting in increased drug loading

Compound: OC[C@H]1O[C@@](CO)(O[C@H]2O[C@H](CO)[C@@H](O)[C@H](O)[C@H]2O)[C@@H](O)[C@@H]1O [sucrose]
Osmolarity for sucrose ([3]; 0.5 w/v %): 15 mOsm | Osmolarity for sucrose ([3]; 1.0 w/v %): 30 mOsm | Osmolarity for sucrose ([3]; 1.5 w/v %): 45 mOsm | Osmolarity for sucrose ([3]; 2.0 w/v %): 60 mOsm | Osmolarity for sucrose ([3]; 2.5 w/v %): 76 mOsm | Osmolarity for sucrose ([3]; 3.0 w/v %): 91 mOsm | Osmolarity for sucrose ([3]; 4.0 w/v %): 123 mOsm | Osmolarity for sucrose ([3]; 5.0 w/v %): 156 mOsm | Osmolarity for sucrose ([3]; 6.0 w/v %): 190 mOsm | Osmolarity for sucrose ([3]; 7.0 w/v %): 225 mOsm | Osmolarity for sucrose ([3]; 8.0 w/v %): 261 mOsm

Compound: IGF-I: insulin-like growth factor I (IGF-I), encapsulated in MVLs
% Free IGF-I [4]: 0.18% | bioactivity of extracted IGF-I [5]: approximately equivalent to that of an unencapsulated standard | % Lipocrit ([6]; 5.0 w/v % sucrose, ~216 mOsm): 36.7% | % Lipocrit ([6]; 8.0 w/v % sucrose, ~321 mOsm): 41.8% | physicochemical integrity of encapsulated IGF-I ([7]; SDS-PAGE and RP-HPLC, extracted with 75:25 IPA:2N citric acid): confirmed | degradation of encapsulated protein ([7]; Table 6A formulations (100 mM HCl)): showed some degradation | presence of IGF-I oligomers ([7]; absence of an acid buffer, Table 6B): increased presence of IGF-I oligomers in the absence of an acid buffer | solubility and bioavailability of encapsulated IGF-I versus pH ([8]; 10 to 80 mg/mL IGF-I, with or without 100 mM HCl or 25 mM citric acid): varied according to pH of the first aqueous component | solubility ([8]; pH below 5): about 300 mg/mL

Compound: cytosine arabinoside [Cytarabine]
release rate of encapsulated molecules in biological fluids [9]: faster than is therapeutically desirable | % Yield [1]: 57.1% and 62.6% and 77.3% and 69.6% | effect of osmolarity of first aqueous solution on percent yield [1]: remaining relatively constant | encapsulation efficiency [10]: relatively low | Drug Loading ([2]; first aqueous: 40 mg/mL, 0.0 w/v % sucrose, 20 mM citric acid, est. 185.9 mOsm): 61.7 mg/mL | Drug Loading ([2]; first aqueous: 40 mg/mL, 2.0 w/v % sucrose, 20 mM citric acid, est. 245.9 mOsm): 45.2 mg/mL | Drug Loading ([2]; first aqueous: 40 mg/mL, 5.0 w/v % sucrose, 20 mM citric acid, est. 341.9 mOsm): 30.8 mg/mL | Drug Loading ([2]; first aqueous: 40 mg/mL, 8.0 w/v % sucrose, 20 mM citric acid, est. 446.9 mOsm): 21.0 mg/mL
